Consider four compounds from US8969392B2, “Pesticide composition comprising propamocarb-fosetylate and an insecticidally active substance” (Bayer Cropscience AG, priority 2006, dated 2015).

One test concerns Plutella xylostella. In words: Plutella xylostella test (cabbage leaf dip, larvae, mortality). In kind it is in vivo. The following applies: mortality after 6 days, cabbage leaves dipped. As to the method: (§1) To produce a suitable preparation of active compound, 1 part by weight of active compound is mixed with the stated amount of solvent and emulsifier, and the concentrate is diluted with emulsifier-containing water to the desired concentration.
Cabbage leaves (Brassica oleracea) are treated by being dipped into the preparation of the active compound at the desired concentration and are infested with larvae of the diamond black moth Plutella xylostella as long as the leaves are still moist.
After a period of time of 6 days, the mortality is determined. 100% means that all the caterpillars have been killed; 0% means that none of the caterpillars have been killed.

The next test concerns Myzus persicae. In words: Myzus persicae test (cabbage leaf dip, mortality). The note with it: mortality after 6 days, cabbage leaves dipped. It counts as in vivo. The procedure: as §1
Cabbage leaves (Brassica oleracea) which are heavily infested by the green peach aphid (Myzus persicae) are treated by being dipped into the preparation of the active compound at the desired concentration.
After a period of time of 6 days, the mortality is determined. 100% means that all the […] have been killed; 0% means that none of the […] have been killed.

For another test, the system named is Phaedon cochleariae. In words: Phaedon cochleariae test (cabbage leaf dip, larvae, mortality). In kind it is in vivo. The following applies: mortality after 4 days, cabbage leaves dipped. As to the method:
as §1
Cabbage leaves (Brassica oleracea) are treated by being dipped into the preparation of the active compound at the desired concentration and are infested with larvae of the mustard beetle Phaedon cochleariae as long as the leaves are still moist.
After a period of time of 4 days, the mortality is determined. 100% means that all the […] have been killed; 0% means that none of the […] have been killed.

The test system of the next test is Plasmopara viticola. The note with it: straight use of the compound; WO-99/42468; cited from earlier work.

The structures appear in SMILES notation.

`N#C/N=C1\SCCN1Cc1ccc(Cl)nc1` [thiacloprid]: in the test with Plutella xylostella (rate of application 20 ppm), the “Efficacy (%)” value amounted to 20%.

Turning to `CN/C(=N\[N+](=O)[O-])NCc1cnc(Cl)s1` [Clothianidin, clothianidin], the “Efficacy (%)” value with Myzus persicae (rate of application 0.8 ppm) came out at 75%. On to `CCCOC(=O)NCCCN(C)C.CCO[PH](=O)O` [Propamocarb-fosetylate, dimethyl-[3-(propoxycarbonylamino)propyl]ammonium-O-ethylphosphonate], for which the entries for the “Efficacy (%)” value in the test with Myzus persicae (rate of application 200 ppm), in the test with Phaedon cochleariae (rate of application 200 ppm) and in the test with Plutella xylostella (rate of application 200 ppm) were 0%, 5% and 0%, respectively. In the test with Plasmopara viticola, the “fungicide activity to control Plasmopara viticola” value was “Some fungicide activity”.

In the case of `O=[N+]([O-])NC1=NCCN1Cc1ccc(Cl)nc1` [Imidacloprid, imidacloprid], in the test with Phaedon cochleariae (rate of application 20 ppm), the “Efficacy (%)” value is 80%.
